Measured values reported in patent US4201784A, “Substituted 2-[2'-(5"-nitrofuryl-2")vinyl-and 4'-(5"-nitrofuryl-2"-1,3-butadieryl]quinoline-4-carboxylic acid amides and salts thereof” (Institut Organicheskogo Sinteza Akademii Nauk Latviiskoi SSR, priority 1977, dated 1980).
Like-named read-outs stand apart in the source and are kept apart here.

Tests used:
acatol-1 = test: Antitumor activity, large intestine adenocarcinoma acatol-1; type: in vivo, mice
Method: (§1) Apart from the tests on Ehrlich ascitic tumor, giniquine was studied on twelve more inoculated tumors. Seven tumors (melanoma B16, sarcoma AK, large intestine carcinoma acatol-1, sarcoma 180, adenocarcinoma 755, Lewis lung carcinoma and sarcoma 37) were inoculated subcutaneously with 50 mg of tumoral cells per mouse. Four tumors (lymphatic leukemies L 5178, L 5178Y, L 1210 and P-388) were inoculated intraperitoneally with 10^6 cells per mouse. One tumor (La, hemocytoblastosis) was inoculated intraperitoneally by injecting 50 mg of cell suspension of spleen and liver of mice suffering La hemocytoblastosis, per mouse. Giniquine was injected intraperitoneally five times for seven days: 1,2,3,4,7 days or 3,4,5,6,7 days after the implantation of tumor. The rate of deceleration of the tumor growth was established 14 days after the ultimate injection of giniquine; life of test animals was recorded for 60 days.

[1] = tested on: lymphatic leukemia L-1210; test: Antitumor activity, lymphatic leukemia L-1210; type: in vivo, mice
Method: as §1

sarcoma AK = test: Antitumor activity, sarcoma AK; type: in vivo, mice
Method: as §1

[2] = tested on: cells of Ehrlich ascitic tumor; test: In vitro incorporation of labeled precursors into DNA, RNA and protein of Ehrlich ascitic tumor cells; type: cell-based, mice; conditions: for activity at 100 µM: 1 h, 1.10^-4 M
Method: The effect of giniquine on biosynthesis of molecules in the in vitro tests was studied with suspensions of cells of Ehrlich ascitic tumor. The tests were conducted with common white mice of a mass of 18-20 g. Ascites was taken 7-8 days after the inoculation, dissolved with a cool Eagle medium (pH 7.4) containing 0.1% of heparin, and the cells were precipitated by centrifuging at 600 g. The cells were washed twice with the same medium, and a 10% suspension of the cells in the Eagle medium was prepared.
The effect of giniquine on biosynthesis of DNA, RNA and protein in the cells of Ehrlich ascitic tumor was assessed on the basis of incorporation of cells of specific labeled precursors into acid-insoluble fraction: 2-^14 C-thymidine, 2-^14 C-uridine and 2-^14 C-leucine, respectively.
The incubating medium contained, in a total volume of 2 ml, 100 mg of tumoral cells in the form of suspension, Eagle medium (pH 7.4), giniquine in a concentration of 1.10^-4 m and labeled precursors of nucleic acids and protein with a radioactivity corresponding to 0.1 μc. Control samples contained a corresponding volume of distilled water to replace the preparation solution.
The incubation was conducted in Warburg apparatus vessels at 37° C. for one hour. After the incubation, tumoral cells were fixed by adding cool 10% trichloracetic acid to the incubating medium (1:1). Concurrently a control sample without incubation was prepared, to which, before adding the cell suspension, was added 10% trichloracetic acid in the same ratio.
The precipitated cells were extracted for 20 minutes at 0° C. with 5% trichloroacetic acid. The samples were then filtered through millipore filters (HUFS, pore diameter 0.4 μ). The precipitate on the filter was washed twice with 5 ml of cool 5% trichloracetic acid and once with 5 ml of toluene. The filters were dried in the air and transferred into quartz flasks containing 10 ml of toluene scintillator. The radioactivity was determined by means of a liquid scintillation counter. The results were expressed in percent of the control.
It will be apparent from the Table that under the action of giniquine in a concentration of 1.10^-4 M the incorporation of labeled precursors of DNA, RNA and protein in acid-insoluble fraction of cells of Ehrlich ascitic tumor is disturbed compared to the control. […] The results of in vitro experiments study of the effect of 0.3 and 0.1% solutions of giniquine on the incorporation of 2-^14 C-thymidine in the acid-insoluble fraction (DNA) of Erlich cells are presented in Table 6.

[3] = tested on: Tumor cells (Ehrlich ascitic tumor); test: In vivo biosynthesis of DNA, RNA and protein in tumor cells; design: species or system mice; conditions: for Incorporation of 2-^14 C-leucine in protein / Incorporation of 2-^14 C-thymidine in DNA: intraperitoneal 100 mg/kg; for inhibition at 100 mg/kg: Mus musculus, Ehrlich
Method: The influence of giniquine on biosynthetic processes in the in vivo tests was studied on common white mice of a mass of 25-35 g with Ehrlich ascitic tumor.
The mice were divided into two groups. The animals in the first group were given a single injection of the preparation in differing doses, and the animals in the second group were treated with distilled water. Three series of experiments were conducted. In the first series of tests (16 mice) the preparation was injected in a dose of 100 mg/kg ([…] dose), and the animals were decapitated one hour after the injection; in the second test series (16 mice) the animals were slaughtered 3 hours after the injection with other conditions being the same. In the third test series (35 mice) the influence of giniquine on plastic metabolism in tumor cells and normal tissues was studied 24 hours after the injection of a 0.33% solution of the preparation in a dose of 28 mg/kg (therapeutical dose).
Labeled precursors of nucleic acids and protein were injected intraperitoneally one hour before the slaughter of the animals (50 μc/100 g). Ascitic fluid, as well as liver and spleen, mucous membrane of small intestine, brain, kidneys and lungs were taken for analysis. 10% suspension was prepared from tumor cells, and 10% homogenates were prepared from tissues in a physiological solution.
Tumor cells and tissue homogenates for precipitation of nucleic acids were treated with 57% perchloric acid (10:1). Acid-soluble fraction was removed by washing the precipitate twice with 5 ml of 5% perchloic acid with subsequent centrifuging at 2000 g. Nucleic acids were hydrolyzed by the Schneider method. Radioactivity of DNA and RNA fractions was measured by means of a liquid scintillation counter. The quantity of DNA and RNA was determined by spectrophotometry: the quantity of DNA was determined with diphenylamine, and RNA- with orcin.
To prepare protein hydrolysate, the suspension of tumoral cells and homogenates of normal tissues were treated with cool 10% trichloracetic acid (1:4), with subsequent centrifuging at 2000 g for ten minutes. The precipitate was washed twice with 5 ml of 10% trichloracetic acid. Lipoids were removed by a consecutive treatment of the precipitate with ethanol, saturated solution of sodium acetate, a mixture of ethanol and ether (3:1) and ether. To prepare protein hyhdrolysate, 4 ml of 0.3N KOH were added to the precipitate, and the mixture was placed into a thermostatic chamber at 37° C. for 60 minutes. The radioactivity was measured by means of a liquid scintillation counter. Protein was quantitatively determined by spectrophotometry using a microbiuret reaction.

[4] = BALB/c female mice, intraperitoneal, days 3,4,5,6,7, optim. daily dose 10.0 mg/kg
[5] = 24 hours, intraperitoneal 28 mg/kg

With `CCN(CC)CCCC(C)NC(=O)c1cc(C=Cc2ccc([N+](=O)[O-])o2)nc2ccccc12` (stereo not drawn) [giniquine, 2-[2'-(5"-nitrofuryl-2")vinyl]quinoline-4-carboxylic acid (α-methyl-δ-diethylaminobutyl)amide triphosphate] the “Deceleration of tumor growth” value (acatol-1; [4]) was 38%, the “Max. prolongation of life” value (acatol-1; [4]) was 25% and the “antitumor effect / sensitivity (in words)” value (acatol-1; acatol-1) was “slight antitumor effect”. The Max. life prolong. ([1]; BDF1 male mice, intraperitoneal, days 1,2,3,4,7, optimum daily dose 6.0 mg/kg) was 15%, the “sensitivity (in words)” value ([1]; L-1210) was “practically insensitive” and the “Deceleration of tumor growth” value (sarcoma AK; common female mice, intraperitoneal, days 3,4,5,6,7, optim. daily dose 2.2 mg/kg) was 46%. For the same molecule, the “Max. prolongation of life” value (sarcoma AK; common female mice, intraperitoneal, days 3,4,5,6,7, optim. daily dose 10.0 mg/kg) was 15%, the “antitumor effect (in words)” value (sarcoma AK; sarcoma AK) was “slight antitumor effect” and the “Incorporation of 2-^14 C-thymidine in DNA in % of control” value ([2]; 0.1% solution) was 2.4 % of control. The “suppression of biosynthesis of DNA in tumor cells (in words)” value ([2]; 0.3% solution) was “practically complete suppression”, the activity at 100 µM ([2]; Mus musculus, Ehrlich, read-out: Incorporation of 2-^14 C-leucine in percent of control) was 86% and the activity at 100 µM ([2]; Mus musculus, Ehrlich, read-out: Incorporation of 2-^14 C-thymidine in percent of control) was 61%. For the same molecule, the activity at 100 µM ([2]; Mus musculus, Ehrlich, read-out: Incorporation of 2-^14 C-uridine in percent of control) was 52%, the activity at 0.1 % ([2]; Mus musculus, Ehrlich, 0.1% solution, read-out: Incorporation of 2-^14 C-thymidine in DNA in % of control) was 2.4% and the activity at 0.3 % ([2]; Mus musculus, Ehrlich, 0.3% solution, read-out: Incorporation of 2-^14 C-thymidine in DNA in % of control) was 0.7%. The “incorporation of labeled precursors in DNA, RNA and protein (in words)” value ([2]; in vitro) was “decelerates the incorporation of labeled precursors in DNA, RNA and protein”, the “Incorporation of 2-^14 C-leucine in protein” value ([3]; 1 h) was 59.0 % of control and the “Incorporation of 2-^14 C-thymidine in DNA” value ([3]; 1 h) was 43.0 % of control. For the same molecule, the “Incorporation of 2-^14 C-leucine in protein” value ([3]; 3 h) was 14.0 % of control, the “Incorporation of 2-^14 C-thymidine in DNA” value ([3]; 3 h) was 30.0 % of control and the “suppression of incorporation of 2-^14 C-thymidine in DNA” value ([3]; 24 hours, 28 mg/kg) was 82%. The “suppression of incorporation of 2-^14 C-uridine in RNA” value ([3]; 24 hours, 28 mg/kg) was 42%, the “Incorporation of specific precursors, DNA” value [3, 5] was 18.0 % of control and the “Incorporation of specific precursors, Protein” value [3, 5] was 54.0 % of control. The “Incorporation of specific precursors, RNA” value [3, 5] was 58.0 % of control, the inhibition at 100 mg/kg ([3]; 1 h, one hour, 100 mg/kg, read-out: inhibition of biosynthesis of DNA) was 57% and the inhibition at 100 mg/kg ([3]; 3 h, three hours, 100 mg/kg, read-out: inhibition of biosynthesis of DNA) was 70%. For the same molecule, the inhibition at 100 mg/kg ([3]; 3 h, three hours, 100 mg/kg, read-out: inhibition of biosynthesis of protein) was 86%, the “biosynthesis processes in tumor cells (in words)” value ([3]; in vivo) was “the same effect on biosynthesis processes in tumor cells” and the “suppression of biosynthesis of protein” value ([3]; one hour, 100 mg/kg) was 41%.
